Tested on: MV-4-11 cells
Assay: Gene expression microarray analysis (Affymetrix PrimeView) and GSEA
Assay type: cell-based, human
Conditions: ProbeSet 11754607_s_at; LIST B

Nc1ncn([C@@H]2O[C@H](CO)[C@@H](O)[C@H]2O)c(=O)n1 [azacitidine]
RFU, HSP90B1 /// MIR3652: 2647.82 RFU
